“Also recorded” adds a separate entry of the source.
Assays:
[1] = test system: MCF7 (human breast cancer) cell line; experiment: MTT assay, in vitro cytotoxicity against MCF7; assay type: cell-based; conditions: MCF7 cells; for IC50: MTT, 24 h exposure, read-out: IC50 ± SEM MCF7; for in vitro cytotoxicity in comparison, MCF7: compared with cisplatin or each other
Procedure: (§1) Monim-ul-Mehboob, A. A. Isab, V. Dhuna, G. Bhatia, K. Dhuna and S. Altuwaijri, New J. Chem., 39 (2015) 377-incorporated herein by reference in its entirety]. The cells were seeded at 3×10^3 cells/well in 100 μL DMEM containing 10% Fetal Bovine Serum (FBS) in 96-well tissue culture plate and incubated for 72 h at 37° C., 5% CO2, in air and 90% relative humidity in CO2 incubator. […] The medium of wells was discarded and 100 μL DMEM containing MTT (0.5 mg/ml) was added to the wells and incubated in CO2 incubator at 37° C. in dark for 4 h. After incubation, a purple colored formazan produced in the cells appeared as dark crystals in the bottom of the wells. The culture medium was discarded from each well carefully to prevent disruption of monolayer and 100 μL of dimethyl sulfoxide (DMSO) was added in each well. The solution in the wells was thoroughly mixed to dissolve the formazan crystals which produce a purple solution. The absorbance of the 96 well-plates was taken at 570 nm with Labsystems Multiskan EX ELISA reader against a reagent blank. […] The MTT assay was performed in three independent experiments, each in triplicate. […] A549 (human lung carcinoma), MCF7 (human breast cancer), HCT15 (human colon adenocarcinoma), and HeLa (human cervical cancer) cell lines. […] This cytotoxic effect was obtained by the stipulated increase in the concentrations of the complexes and cisplatin against fixed number of human cancer cells. The IC50 concentration of the complexes and Cisplatin for different human cell lines was obtained from curves between the complexes concentration and percentage viability of the cells.

[2] = test system: HeLa (human cervical cancer) cell line; experiment: MTT assay, in vitro cytotoxicity against HeLa; assay type: cell-based; conditions: 24 h exposure, HeLa cells, read-out: IC50 ± SEM HeLa
Procedure: as §1

[3] = test system: A549 (human lung carcinoma) cell line; experiment: MTT assay, in vitro cytotoxicity against A549; assay type: cell-based; conditions: A549 cells; for IC50: MTT, 24 h exposure, read-out: IC50 ± SEM A549; for in vitro cytotoxicity in comparison, A549: compared with cisplatin, carboplatin or each other
Procedure: as §1

[4] = test system: HCT15 (human colon adenocarcinoma) cell line; experiment: MTT assay, in vitro cytotoxicity against HCT15; assay type: cell-based; conditions: HCT15 cells; for IC50: MTT, 24 h exposure, read-out: IC50 ± SEM HCT15
Procedure: as §1

[5] = Stability in DMSO-d6 by time dependent 1H NMR; assay type: physicochemical; conditions: spectra after 1, 6, 12, 24, 48 and 72 h
Procedure: Complexes (1), (5) and (6) were dissolved in DMSO-d6 and their ^1H NMR spectra were measured. The extent of decomposition over time was determined by comparing the NMR spectra collected after 1, 6, 12, 24, 48 and 72 h.

[6] = Solubility in organic solvents; assay type: physicochemical

For `N.N.O=C([O-])C1(C(=O)[O-])CCC1.[Pt+2]` [Carboplatin, carboplatin, reference compound], the IC50 [1] was 53.2 ± 1.65 µM, the IC50 [2] was 55 ± 0.94 µM and the IC50 [3] was 70.2 ± 1.7 µM. It also gave an IC50 [4] of 63.3 ± 1.58 µM.

`N.N.[Cl][Pt][Cl]` [Cisplatin, cisplatin, reference compound] gave an IC80 [1] of 21.3 µM, an IC50 [1] of 21.3 ± 1.54 µM and an IC50 [2] of 18.1 ± 1.36 µM. The IC50 [3] was 36.9 ± 1.88 µM and the IC50 [4] was 26.6 ± 1.07 µM.

For `CN1CCNC1=S.CN1CCNC1=S.CN1CCNC1=S.CN1CCNC1=S.O.O.[Cl-].[Cl-].[Pt+2]` [Complex (1), Tetrakis(1-methylimidazolidine-2-thione)platinum(II)], the “change in chemical shifts and splitting patterns in time dependent 1H NMR spectra (extent of decomposition)” value [5] was “No significant change”, the “in vitro cytotoxicity in comparison, MCF7” value (from here on “in vitro cytotoxicity … MCF7”) [1] was “very similar cytotoxic data and efficacy” and the IC50 [1] was 74.6 ± 1.54 µM. For the same molecule, the IC50 [2] was 142 ± 2.42 µM, the “solubility in CDCl3” value ([6]; CDCl3) was “moderately soluble” and the “solubility in DMSO and DMF” value ([6]; DMSO and DMF) was “completely soluble”. The “in vitro cytotoxicity in comparison, A549” value (“in vitro cytotoxicity … A549” for short) [3] was “in between cisplatin and carboplatin”, the IC50 [3] was 55.5 ± 1.08 µM and the IC50 [4] was 147 ± 1.77 µM.

For `CCN1CCNC1=S.CCN1CCNC1=S.CCN1CCNC1=S.CCN1CCNC1=S.[Cl-].[Cl-].[Pt+2]` [Complex (2), Tetrakis(1-ethylimidazolidine-2-thione)platinum(II)], the “change in chemical shifts and splitting patterns in time dependent 1H NMR spectra (extent of decomposition)” value [5] was “No significant change”, the IC80 [1] was 11.4 µM and the “in vitro cytotoxicity … MCF7” value [1] was “two-fold better cytotoxic agent against the MCF7 cell line than cisplatin; also recorded: two-fold better as a cytotoxic agent than cisplatin”. The IC50 [1] was 11.4 ± 1.34 µM, the IC50 [2] was 79.2 ± 1.95 µM and the “in vitro cytotoxicity … A549” value [3] was “comparable to that of cisplatin; also recorded: almost two times better than that of carboplatin”. For the same molecule, the IC50 [3] was 37.1 ± 1.23 µM, the “in vitro cytotoxic efficacy in comparison, HCT15” value ([4]; compared with cisplatin and carboplatin) was “lies in between cisplatin's and carboplatin's” and the IC50 [4] was 41.6 ± 1.53 µM.

For `CCCN1CCNC1=S.CCCN1CCNC1=S.CCCN1CCNC1=S.CCCN1CCNC1=S.[Cl-].[Cl-].[Pt+2]` [Complex (3), Tetrakis(1-propylimidazolidine-2-thione)platinum(II)], the IC50 [1] was 62.9 ± 1.51 µM, the IC50 [2] was 133 ± 1.97 µM and the “in vitro cytotoxicity … A549” value [3] was “in between cisplatin and carboplatin”. The IC50 [3] was 59.2 ± 2.6 µM and the IC50 [4] was 95.6 ± 2.14 µM.

For `CC(C)N1CCNC1=S.CC(C)N1CCNC1=S.CC(C)N1CCNC1=S.CC(C)N1CCNC1=S.[Cl-].[Cl-].[Pt+2]` [Complex (4), Tetrakis(1-isopropylimidazolidine-2-thione)platinum(II)], the “in vitro cytotoxicity … MCF7” value [1] was “very similar cytotoxic data and efficacy”, the IC50 [1] was 78.1 ± 1.45 µM and the IC50 [2] was 95.44 ± 0.88 µM. The “in vitro cytotoxicity … A549” value [3] was “almost equal cytotoxicity”, the IC50 [3] was 85.7 ± 1.35 µM and the IC50 [4] was 122 ± 1.75 µM.

With `CCN1CCCNC1=S.CCN1CCCNC1=S.CCN1CCCNC1=S.CCN1CCCNC1=S.[Pt+2]` [Complex (5), Tetrakis[1-ethyltetrahydropyrimidine-2(1H)-thione]platinum(II)] the IC50 [1] was 95 ± 2.02 µM, the IC50 [2] was 166 ± 2.01 µM and the IC50 [3] was 137 ± 1.77 µM. The IC50 [4] was 159 ± 2.9 µM.

Work on `S=C1NCCCCN1.S=C1NCCCCN1.S=C1NCCCCN1.S=C1NCCCCN1.[Cl-].[Cl-].[Pt+2]` [Complex (6), Tetrakis(1,3-diazepane-2-thione)platinum(II)] yielded an IC50 [1] of 121 ± 3.36 µM, an IC50 [2] of 92.5 ± 2.45 µM and an IC50 [3] of 119 ± 2.25 µM. The IC50 [4] was 108 ± 2.03 µM.

With `CC(C)N1CCNC1=S.CC(C)N1CCNC1=S.CC(C)N1CCNC1=S.CC(C)N1CCNC1=S.O=[N+]([O-])[O-].O=[N+]([O-])[O-].[Pt+2]` [Complex (7), Tetrakis(1-isopropylimidazolidine-2-thione)platinum(II)] the “in vitro cytotoxicity … MCF7” value [1] was “very similar cytotoxic data and efficacy”, the IC50 [1] was 74.4 ± 1.28 µM and the IC50 [2] was 99.9 ± 2.25 µM. The “in vitro cytotoxicity … A549” value [3] was “almost equal cytotoxicity”, the IC50 [3] was 84.2 ± 1.09 µM and the IC50 [4] was 116 ± 2.09 µM.
